Measurements as given in PubChem BioAssay (NCI).
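Five concentrations, 48 hours, 96-well plates. GI50 is the concentration that inhibits growth by half. TGI marks complete inhibition of growth.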

Key:
Experiment in all cases: inhibition of tumour cell growth, NCI panel, 48 h
786-0 renal = tested on: 786-0 renal
ACHN renal = tested on: ACHN renal
CCRF-CEM leukemia = tested on: CCRF-CEM leukemia
K-562 leukemia = tested on: K-562 leukemia
NCI-H23 lung = tested on: NCI-H23 lung
SF-295 CNS = tested on: SF-295 CNS
SK-MEL-5 melanoma = tested on: SK-MEL-5 melanoma
SK-OV-3 ovarian = tested on: SK-OV-3 ovarian
SW-620 colon = tested on: SW-620 colon
MALME-3M melanoma = tested on: MALME-3M melanoma

| Compound | GI50 (786-0 renal) [µM] | TGI (786-0 renal) [µM] | GI50 (ACHN renal) [µM] | TGI (ACHN renal) [µM] | GI50 (CCRF-CEM leukemia) [µM] | TGI (CCRF-CEM leukemia) [µM] | GI50 (K-562 leukemia) [µM] | TGI (K-562 leukemia) [µM] | GI50 (NCI-H23 lung) [µM] | TGI (NCI-H23 lung) [µM] | GI50 (SF-295 CNS) [µM] | TGI (SF-295 CNS) [µM] | GI50 (SK-MEL-5 melanoma) [µM] | TGI (SK-MEL-5 melanoma) [µM] | GI50 (SK-OV-3 ovarian) [µM] | TGI (SK-OV-3 ovarian) [µM] | GI50 (SW-620 colon) [µM] | TGI (SW-620 colon) [µM] | TGI (MALME-3M melanoma) [µM] | GI50 (MALME-3M melanoma) [µM] |
| --- | --- | --- | --- | --- | --- | --- | --- | --- | --- | --- | --- | --- | --- | --- | --- | --- | --- | --- | --- | --- |
| CC1=C(C(=O)Nc2ccc(F)c(Cl)c2)C(c2cccc(O)c2)NC(=O)N1 (stereo not drawn) | > 100 | > 100 | > 100 | > 100 | 79.3 | > 100 | 73.5 | > 100 | > 100 | > 100 | > 100 | > 100 | 45.1 | > 100 | > 100 | > 100 | > 100 | > 100 |  |  |
| COc1ccc2nc(NC(=O)C(=O)C(C#N)c3ccc([N+](=O)[O-])cc3)sc2c1 (stereo not drawn) |  | > 100 |  | > 100 |  |  |  | > 100 |  | > 100 |  | > 100 |  | > 100 |  | > 100 |  | > 100 | > 100 |  |
| CN(C)CCN1C(=O)c2ccc3c4c(ccc(c24)C1=O)C(=O)N(CCN=C=S)C3=O | 0.0436 | 0.416 | 0.0256 | 0.123 |  |  |  |  | 0.162 | 0.417 | 0.122 | 0.513 | 0.113 | 0.235 | 0.164 | 0.668 | 0.0269 | 0.155 | 0.224 | 0.0747 |
| COc1c(CCl)cc(-c2cc(=O)c3ccccc3s2)cc1CCl |  | 1.74 |  | > 100 |  |  |  | > 100 |  | > 100 |  | 36.1 |  | > 100 |  | > 60.2 |  |  |  |  |
| COc1cc(/C=C/c2cc(/C=C/c3ccc(O)c(OC)c3)n(C(=O)Nc3ccc(C)cc3C)n2)ccc1O | 0.549 | 1.76 | 0.412 | 2.11 | 0.232 | > 100 | 0.292 | 1.17 | 0.275 | 1.25 |  |  | 0.327 | 1.26 | 0.347 | 1.21 |  |  |  |  |
| CC(C)(C)c1cc(C(O)(C(F)(F)F)C(F)(F)F)c2c(c1)C(C(F)(F)F)(C(F)(F)F)OC(C(C)(C)C)N2 (stereo not drawn) |  | 11.9 |  | 10.2 |  |  |  | 11 |  | 8.6 |  | 8.04 |  | 3.6 |  | 5.58 |  | 13.8 |  |  |
| CCCCCCCCCCCCCCCCCCOc1ccccc1CC(=O)OCC[N+]1(C)CCCC1 | 1.71 | 3.25 | 4 | 16.4 |  |  | 2.81 | 10.5 |  |  | 2.83 | 8.8 |  |  | 18.9 | 38.8 |  |  | 5.22 | 2.08 |
| C=CC/C=C/C/C=C/CCCCCCCc1cccc(O)c1C(=O)O |  | > 100 |  | > 100 |  | > 100 |  | > 100 |  | 75.9 |  | > 100 |  |  |  | 79.8 |  | > 100 | > 100 |  |
| CN(C)c1cc[c]([Sn]([c]2ccc(N(C)C)cc2)([c]2ccc(N(C)C)cc2)[c]2ccc(N(C)C)cc2)cc1 | 5.36 | 19.3 | 14.5 | 34.2 | 1.26 | 5.72 | 2.02 | 7.33 | 5.88 | 32.3 | 10.9 | 25.7 | 2.85 | 14.2 | 28 | 49.5 | 4.66 | 20.5 |  |  |
| Nc1ccc(-c2nc3ccc(Cc4ccc5nc(-c6ccc(N)cc6)[nH]c5c4)cc3[nH]2)cc1 | 4.52 | 31.6 | 17.9 | 37.5 | 2.12 | 6.7 |  |  | 3.83 | 22.3 | 12.8 | 32.4 | 5.22 | 34.1 | 18.9 | 40.6 | 1.8 | 3.46 | 4.53 | 2.04 |
| N#CC1CC2(C1)OCCS2 (stereo not drawn) |  | > 100 |  | > 100 |  | > 100 |  | > 100 |  | > 100 |  | > 100 |  |  |  |  |  | > 100 |  |  |
| O=c1c2ccccc2c(=O)c2c1[nH]c1c(-c3ccccc3)c(-c3ccccc3)c(=O)c12 | 3.96 | 14.9 | 1.93 | 3.62 | 1.46 | 11 | 3.68 | > 100 | 3.72 | 14.4 | 2.34 | 6.24 | 2.05 | 4.03 |  |  | 3.85 | 14.1 | 8.19 | 2.24 |
| NC(=O)NCc1c(C(N)=O)ncn1Cc1ccccc1 |  | > 100 |  | > 100 |  | > 100 |  | > 100 |  | > 100 |  | > 100 |  | > 100 |  | > 100 |  | > 100 |  |  |
| Cc1c(C(=O)/C=C/c2ccccc2)[n+](=O)c2ccccc2n1[O-] |  | 32 |  | 33.6 |  | 74.7 |  | 51.9 |  | 29.5 |  | 31.5 |  |  |  | 42.7 |  | 28.3 | 33.6 |  |
| O=C(/C=C\c1ccc(NCc2ccc(C(=O)O)cc2)cc1)CCl | 10.2 | 23.9 | 16.1 | 31.6 | 2.62 | 7.03 | 3.36 | 14 | 15.5 | 31 | 17.5 | 34.3 | 17.2 | 34.5 | 15.1 | 28.8 | 3.14 | 11.6 |  |  |
| C1CCC([PH+](C2CCCCC2)C2CCCCC2[PH+](C2CCCCC2)C2CCCCC2)CC1.O=C(C1[CH-]CCCC1)C1CCCC[N-]1.[Au] (stereo not drawn) | 0.413 | 1.85 | 0.92 | 2.12 |  |  | 0.194 | > 100 |  |  | 0.262 | 1.09 | 0.252 | 0.661 | 0.33 | 1.4 |  |  |  |  |
| O=C1CC2c3ccccc3CCC2c2ccccc21 (stereo not drawn) |  | 79.8 |  | > 100 |  |  |  | > 100 |  | 69 |  | 49.7 |  | 31 |  | > 100 |  | > 100 |  |  |
| CC(=O)N[C@H]1CSSC[C@@H](C(N)=O)NC(=O)[C@H](C(C)C)NC(=O)[C@H](C)NC(=O)[C@H](Cc2cnc[nH]2)NC1=O | > 100 | > 100 | > 100 | > 100 | 29.1 | > 100 | > 100 | > 100 | > 100 | > 100 | > 100 | > 100 | > 100 | > 100 | > 100 | > 100 |  |  | > 100 | > 100 |
